Read-outs that look alike come from different tables or passages of the source.
Columns and labels:
[1] = rat, in vivo, po
Text: (§1) Sprague-Dawley rats (n=6 per group) were divided into 3 groups. […] Plasma was separated and processed for analysis by LC-MS/MS. For pharmacokinetic and statistical analysis, plasma concentration versus time data were plotted and analyzed by non-compartmental analysis method using WinNonlin (Pharsight, Mountain View, Calif.) software.
as §1, with “For this SD” for “Sprague-Dawley”

[2] = tested on: CrkL; assay: Immunoblotting of CrkL phosphorylation in K562 cells; format: cell-based, Human; conditions: 30 min, Y207
Experimental: K562 cells were treated as indicated for 30 min and stat5 phosphorylation at Y694 or CrkL phosphorylation at Y207 were assessed by immunoblotting. Total stat5 or β-actin expression was assessed to ensure equal loading. Pio was used as a negative control and IMT was used as a positive control. Data is one representative of 3 independent experiments.
K562 cells were cultured in 6 well plates and treated as indicated in figures or descriptions of FIG. 1E, FIG. 1G and FIG. 2D-E. Cells were then homogenized in lysis buffer containing 50 mM Tris-HCl, pH 7.5, 150 mM NaCl, 1% NP40, 5 mM EDTA, 1 mM DTT, protease and phosphatase inhibitor cocktails (Sigma) and incubated on ice for 30 min followed by 5 cycles of freeze-thaw. Samples were then centrifuged at 14000 rpm at 4° C. for 30 min. Supernatants were then quantified by Bichinchonic acid (Sigma)-based protein estimation. Equal amount of proteins were solubilized in Laemmli buffer, and were resolved by 10%-12% SDS PAGE and transferred onto PVDF membranes (Millipore; Billerica, Mass.). Membranes were blocked in 5% (w/v) non-fat dried milk powder (Sigma) in PBS containing 0.2% Tween 20 (Sigma). […] Immunoreactivity was detected using a chemiluminescent HRP Substrate (Millipore) in a LAS 4010 Chemi-doc Imager (GE Healthcare, Little Chalfont, UK). […]

[3] = tested on: CD34+ cells from imatinib-resistant patients (quiescent LSCs); assay: CFSE assay of quiescent LSCs; format: cell-based, Human; conditions: n=3, 96 h
Experimental: Cells were gated depending on CFSE intensity. […] Apoptosis in these cells was determined by annexin V staining.
For assessing apoptosis in quiescent LSCs, purified CD34^+ cells were first stained with carboxyfluorescein succinimidyl ester (CFSE; Invitrogen) for 30 min. Cells were then washed and resuspended in SFM medium with 5 growth factors and were kept at 37° C. overnight. Next day, cells were treated as indicated in SFM medium with growth factors and were maintained further for 4 days with supplementation of the drugs every 48 h (drug concentrations in FIG. 5 and its description). Cells were then harvested, washed, and were labeled with CD34-PE and Annexin-APC antibodies and then gated into non-dividing cells (CD34^+CFSE^bright) and dividing cell (CD34^+CFSE^dim) population based on CFSE fluorescence intensity. […] Number of cells or apoptosis was determined by flowcytometry.

[4] = tested on: CD34+ cells from healthy donors
Experimental: (§2) Determination of CFZ's Effect on Cell Viability and Apoptosis • a. CellTitre-Glo assay: Cell viability (in FIG. 1B, FIG. 4 and FIG. 6A) assays was performed using the ATP-based CellTiter-Glo Luminescent cell viability assay (Promega Madison, Wis.) as per the manufacturer's instruction. Briefly, (1.25×10^5) K562 cells/ml (FIG. 1B and FIG. 4) or CD34+ cells from healthy donors (FIG. 6A) were cultured in 48-well plates and were treated as indicated in the respective figures and figure descriptions (vehicle; V=0.1% DMSO). Cells were then incubated with CellTitre-Glo reagent for 15 min. Luminescence was recorded in a GloMax-96 Microplate luminometer (Promega, Madison, Wis.) with an integration time of 1 s per well. • b. Analysis of apoptosis by Annexin V staining and flow cytometry • K562 (FIG. 1C-D) and primary CP-CML cells (FIG. 1H-I) were cultured in 6 well plates (2×10^5 cells/well) and were treated with indicated concentrations of compounds as described in respective figures and their descriptions. Cells were then harvested and washed, and incubated in binding buffer (Annexin V Binding Buffer, BD Pharmingen) with 0.3% Annexin V-FITC and PI for 15 min at room temperature in dark. Apoptosis was measured by FACSCalibur flow cytometer (Becton Dickenson, San Jose, Calif.). • c. TUNEL assay • Pro-apoptotic potential was analysed using a Fluorometric APO-BrdU™ TUNEL Assay Kit (Invitrogen) according to the manufacturer's protocol (FIG. 1F). Cells were treated with Vehicle (0.1% DMSO) or CFZ (5 μM) for 48 h. Cells were then fixed in formaldehyde (4%) for 25 min at 4° C., permeabilized with 0.2% Triton-X100 and washed with PBS. Cells were then incubated in Terminal Deoxynucleotidyl Transferase (TdT) reaction buffer without TdT enzyme for 7 minutes at room temperature and then in TdT buffer with TdT enzyme at 37° C. in dark. After termination of TdT reaction, cells were stained with 5 μg/ml of PI for 15 min in dark followed by washing and analysed with fluorescence microscopy.

[5] = tested on: K562 cells; assay: K562 cell viability, CellTiter-Glo luminescent assay; format: cell-based, Human; conditions: Homo sapiens, 48 h
Experimental: K562 cells were treated with indicated concentrations of CFZ for 24 h or 48 h, cell viability was then assessed using the CellTiter-Glo luminescent cell viability assay (Promega). Data is mean±SEM of three independent experiments (each in triplicates). IC50 was calculated using Graphpad prism 5 software.
K562 cells were treated as indicated for 48 h and cell viability was determined by CellTiter-Glo luminescent cell viability assay (A) graphical representation of mean±SEM of three independent experiments.
as §2

| Tmax in combination group compared to individual groups [1] | IC50 ([5]; drug alone, FIG. 4A, read-out: IC50, K562 cell viability assay (48 h)) | IC50 ([5]; in presence of CFZ, read-out: IC50 of dasatinib in presence of CFZ) | Structure (SMILES) | CrkL phosphorylation [2] | number of CFSE-bright (non-dividing) cells [3] | viability of CD34+ hematopoietic progenitor cells from healthy controls [4] |
| --- | --- | --- | --- | --- | --- | --- |
| no change |  |  | Cc1ccc(NC(=O)c2ccc(CN3CCN(C)CC3)cc2)cc1Nc1nccc(-c2cccnc2)n1 [imatinib, Imatinib] | successfully inhibited | failed to reduce | No loss of survival |
|  | 640 nM | 12.4 nM | Cc1nc(Nc2ncc(C(=O)Nc3c(C)cccc3Cl)s2)cc(N2CCN(CCO)CC2)n1 [dasatinib, Dasatinib] |  |  |  |
